Broadly, the EC50 is the concentration at which the effect is half-maximal.

In one experiment the target is T1, human receptor OR4C15 (Homo sapiens, UniProt Q8NGM1).
T1 construct: The receptors were tagged with a FLAG®-Rho tag combination; expressed in transfected cells
The experiment can be described thus: cell-based dose-response, Ca2+ increase (Calcium 5 dye, FLIPR), HEK293T line stably expressing FLAG-Rho tagged receptor with human Gα15. Particulars: FIG. 3, Example 3, SEQ ID NO: 30, stable HEK293T. On the procedure:
(§1) Functional dose-response experiments were performed to evaluate the level of DMTS activity of the modified cell lines expressing individual putative DMTS receptors. A cell line stably expressing a human receptor was generated in a HEK293T cell line for each of the following human receptors: OR2L13, OR4C15, OR5AC2, OR8H3, OR11G2 or OR52N2. The receptors were tagged with a FLAG®-Rho tag combination and stably co-expressed with the human G-protein alpha subunit Gals for the cell based assay. Co-expression of the human Gals activates the Gq transduction pathway that leads to an internal Ca^2+ increase upon binding to the appropriate ligand. Receptors were exposed to increasing concentrations of DMTS. Odorant-induced activity was detected by measuring the Ca^2+ increase in the cytosol using a calcium sensitive fluorescent dye (Molecular Devices, Calcium 5 dye, cat. R8186) and measuring the change in Relative Fluorescence Ratio (RFU) using a fluorometric imaging plate reader (Molecular Devices, FLIPR) following odorant exposure. […] A cell line lacking a receptor was used as a control for non-specific activity at high compound concentrations (‘No receptor’). The activity levels are reported by the potency of the DMTS induced-response for each receptor as a measure of the EC50 value.

The target of the next experiment is T2, human receptor OR11G2 (Homo sapiens, UniProt Q8NGC1).
T2 construct: The receptors were tagged with a FLAG®-Rho tag combination; expressed in transfected cells
T2 sequence (Q8NGC1 35-345 limits assumed): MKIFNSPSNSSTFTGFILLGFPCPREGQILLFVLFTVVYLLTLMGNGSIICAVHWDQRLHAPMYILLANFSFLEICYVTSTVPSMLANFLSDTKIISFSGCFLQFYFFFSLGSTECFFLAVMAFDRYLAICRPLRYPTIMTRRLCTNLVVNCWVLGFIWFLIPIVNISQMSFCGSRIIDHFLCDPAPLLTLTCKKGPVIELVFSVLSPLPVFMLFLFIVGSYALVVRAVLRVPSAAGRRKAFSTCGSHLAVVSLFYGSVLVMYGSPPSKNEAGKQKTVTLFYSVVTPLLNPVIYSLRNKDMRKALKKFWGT
The description is as above. Particulars: FIG. 3, Example 3, SEQ ID NO: 36, stable HEK293T. On the procedure:
as §1

The next experiment has as its target T3, human receptor OR2L13 (Homo sapiens, UniProt Q8N349).
T3 construct: The receptors were tagged with a FLAG®-Rho tag combination; expressed in transfected cells
T3 sequence (Q8N349 1-312): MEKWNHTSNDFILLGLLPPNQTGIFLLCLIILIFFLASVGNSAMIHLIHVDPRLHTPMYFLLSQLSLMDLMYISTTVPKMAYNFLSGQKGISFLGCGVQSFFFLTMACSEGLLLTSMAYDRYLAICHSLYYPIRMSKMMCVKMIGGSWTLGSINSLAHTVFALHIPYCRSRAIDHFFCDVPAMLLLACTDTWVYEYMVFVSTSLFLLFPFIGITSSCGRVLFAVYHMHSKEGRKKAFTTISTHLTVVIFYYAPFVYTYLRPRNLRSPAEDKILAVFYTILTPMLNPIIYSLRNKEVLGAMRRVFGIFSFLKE
The experiment is described as above. Particulars: FIG. 3, Example 3, SEQ ID NO: 26, stable HEK293T. On the procedure: as §1

In a further experiment the target is T4, human receptor OR5AC2 (Homo sapiens, UniProt Q9NZP5).
T4 construct: The receptors were tagged with a FLAG®-Rho tag combination; expressed in transfected cells
T4 sequence (Q9NZP5 1-309): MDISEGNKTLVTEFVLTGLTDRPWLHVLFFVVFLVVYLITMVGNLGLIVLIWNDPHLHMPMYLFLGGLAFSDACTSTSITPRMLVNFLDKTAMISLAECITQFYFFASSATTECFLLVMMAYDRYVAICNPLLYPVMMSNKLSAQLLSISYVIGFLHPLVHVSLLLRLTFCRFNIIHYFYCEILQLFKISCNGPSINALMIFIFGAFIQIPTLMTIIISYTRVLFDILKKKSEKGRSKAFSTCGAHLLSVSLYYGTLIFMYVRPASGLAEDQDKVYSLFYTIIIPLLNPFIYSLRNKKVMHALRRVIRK
The description is as above. The conditions noted are these: FIG. 3, Example 3, SEQ ID NO: 32, stable HEK293T. The protocol:
as §1

The target of a further experiment is T5, human receptor OR52N5 (Homo sapiens, UniProt Q8NH56).
T5 construct: the human receptors were tagged with a Rho-FLAG® tag combination; expressed in transfected cells
T5 sequence (Q8NH56 1-324): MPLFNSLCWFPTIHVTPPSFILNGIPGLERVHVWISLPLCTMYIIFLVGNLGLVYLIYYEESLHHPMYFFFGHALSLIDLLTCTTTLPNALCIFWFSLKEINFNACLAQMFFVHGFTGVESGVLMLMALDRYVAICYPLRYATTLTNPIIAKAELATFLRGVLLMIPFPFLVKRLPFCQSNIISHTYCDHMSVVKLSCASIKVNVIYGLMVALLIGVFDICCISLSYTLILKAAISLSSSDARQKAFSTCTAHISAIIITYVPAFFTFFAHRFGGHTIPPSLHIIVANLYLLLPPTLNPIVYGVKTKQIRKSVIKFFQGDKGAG
The experiment in a line: cell-based dose-response, cAMP increase by HTRF, HEK293T cells (endogenous RTP1 activated) co-transfected with human Golf, Rho-FLAG tagged receptor. The conditions noted are these: FIG. 2, Example 2, SEQ ID NO: 24. On the procedure:
Functional dose-response experiments were performed to evaluate the level of DMTS activity of the modified cell line expressing individual putative DMTS receptors. Using a cell-based assay, mouse receptor Olfr1193, Olfr1093, Olfr1097, Olrf166, Olfr169, Olfr738 and Olfr742, and human receptor OR4S2 and OR52N5 were tested in an HEK293T cell line wherein the endogenous RTP1 gene has been activated and the odorant receptor chaperone protein was expressed (described in WO2016/201153). The mouse receptor genes were tagged with a Lucy-FLAG®-Rho tag combination and the human receptors were tagged with a Rho-FLAG® tag combination resulting in a tag:receptor fusion protein for the cell based assay. Receptor genes were co-transfected with the canonical olfactory human G-protein alpha subunit Golf gene and were exposed to increasing concentrations of the malodor odorant. Co-expression of the human Golf activates the Gs transduction pathway that leads to an internal cAMP increase upon binding to the appropriate ligand. Odorant-induced activity was detected by measuring the cAMP increase in the cytosol using an Homogeneous Time Resolved Fluorescence (HTRF) based kit (CisBio, cAMP dynamic 2 kit, cat. 62AM4PEJ). […]
In general terms: TR-FRET usually uses a lanthanide donor and a delayed reading to cut background.

T1 sequence (Q8NGM1 with tags, fused parts or gaps): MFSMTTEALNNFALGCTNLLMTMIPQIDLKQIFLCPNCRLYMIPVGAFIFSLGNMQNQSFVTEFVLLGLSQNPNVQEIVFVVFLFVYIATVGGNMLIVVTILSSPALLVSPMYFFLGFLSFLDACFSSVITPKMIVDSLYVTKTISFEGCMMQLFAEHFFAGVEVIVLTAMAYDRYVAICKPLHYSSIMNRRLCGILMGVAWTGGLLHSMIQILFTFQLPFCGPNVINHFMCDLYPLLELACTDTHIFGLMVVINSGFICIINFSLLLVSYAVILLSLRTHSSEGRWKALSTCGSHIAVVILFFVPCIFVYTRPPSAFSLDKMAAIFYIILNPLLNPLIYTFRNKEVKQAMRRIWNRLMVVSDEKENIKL

With `CSSSC` [DMTS, dimethyl trisulfide], the EC50 is 0.8 µM on human receptor OR4C15; 12 µM on human receptor OR11G2; 59 µM on human receptor OR2L13; 27 µM on human receptor OR5AC2; 10 µM at human receptor OR52N5.

(Values after patent US11787847B2, “Method of identifying malodor modulating compounds” (FIRMENICH SA, priority 2017, dated 2023).)
